Experimental findings from patent US6461822B2, “Methods of screening compounds for their ability to inhibit the production of inflammatory cytokines” (Pfizer Inc., priority 1998, dated 2002) are described below.

Broadly, the melting point is the temperature, or range, at which the solid turns liquid.

The subject of data set [1] is ATP-induced IL-1β production. Put plainly: IL-1β production assay, ELISA method (ATP-induced IL-1β production by LPS-activated human monocytes). It counts as cell-based. Particulars: for ATP-induced IL-1β production: human monocytes treated continuously with agent, FIG. 2A. The procedure:
IL-1β production assay—ELISA method. Human monocytes were isolated from heparinized blood collected from normal volunteers. 100 ml of blood was diluted with 20 ml of RPMI 1640 medium that contained 5% FBS, 25 mM Hepes, pH 7.3, 2 mM glutamine, and 1% penicillin/streptomycin (Maintenance Medium). 30 ml of this suspension then was layered onto 15 ml of Lymphocyte Separation Medium (Organo Technicon) and centrifuged for 30 min at 1400 rpm at room temperature in a clinical centrifuge. The resulting mononuclear cell layer was harvested, diluted with Maintenance Medium, and the cells were pelleted by centrifugation. The recovered cells were washed with Maintenance Medium by repeated centrifugation. Each well of a 96 well plate was seeded with 2×10^5 mononuclear cells in 0.1 ml of Maintenance Medium; monocytes were allowed to adhere for 2 hr, then the medium (containing non-adherent cells) was replaced with 0.1 ml of fresh medium, and the monocytes were incubated overnight at 37° C. Monocytes were activated with 10 ng/ml of LPS (E. coli; serotype 055:B5) for 2 hr after which the medium was replaced with 0.1 ml of RPMI 1640, 20 mM Hepes, pH 6.9, 100 units/ml penicillin, 100 μg/ml streptomycin, 1% FBS (Release Medium) containing the indicated concentration of test agent; compounds were dissolved in DMSO and the final DMSO concentration in all wells was maintained at 0.2%. […] Cells subsequently were removed by centrifugation, media supernatants were harvested, and IL-1β levels within the media samples were determined with a specific ELISA kit (R and D Systems); each data point is the average of quadruplicate determinations.
On the technique in general: An ELISA detects its analyte on a solid surface through an enzyme-linked reagent.

The test system of data set [2] is soluble polypeptides of human monocytes (31, 32, 56 kDa). Briefly: Identification of DASU binding proteins: labeling of monocyte polypeptides by [14C]DASUs. The following applies: [14C]labeled ligand 100 nM to 10 μm; FIG. 3. The procedure:
Identification of DASU binding proteins. Human monocytes (isolated as described above and plated on 6 cm dishes) were treated with [^14C]Compound 1 in 3 ml of Release Medium (devoid of FBS) for 60 min after which cells were washed twice with 5 ml of Release Medium containing 5% FBS and suspended in 1 ml of 25 mM Hepes, pH 7, 150 mM NaCl, 1 μg/ml pepstatin, 1 μg/ml leupeptin, containing 0.5% saponin. Lysates were clarified by ultracentrifugation and the recovered soluble fractions were exchanged into 10 mM Tris, pH 8, containing 1 μg/ml each of pepstatin and leupeptin with the use of Centricon 30 concentration units. Final concentrates were lyophilized and then solubilized in SDS sample buffer.

Data set [3] deals with T1, rDBP-32 (Homo sapiens, UniProt O00299).
T1 construct: cleaved with thrombin to yield full-length rDBP-31 and rDBP-32 polypeptides; GST (N, cleaved yes); made in house; host or cells: E. coli (as for DBP-31: BL21 [DE3], pGEX2T)
Briefly: Labeling rDBPs with [14C]Compound 2 (SDS PAGE, phosphorimager). The data set is classed as binding. The following applies: FIG. 7A. The source says:
(§1) Labeling rDBPs. […].

In data set [4] the target is bacterial glutathione S-transferase (Schistosoma japonicum, UniProt P08515). It counts as binding. Particulars: identical conditions; FIG. 7A.
Chain of bacterial glutathione S-transferase (P08515 2-218 limits assumed): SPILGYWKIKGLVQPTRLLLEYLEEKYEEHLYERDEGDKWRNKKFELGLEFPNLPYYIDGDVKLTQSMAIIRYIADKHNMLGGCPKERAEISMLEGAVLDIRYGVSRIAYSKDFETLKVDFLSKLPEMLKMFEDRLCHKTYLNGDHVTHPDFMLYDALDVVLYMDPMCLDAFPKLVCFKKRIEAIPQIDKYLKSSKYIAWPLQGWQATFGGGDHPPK
Text: as §1

The test system of data set [5] is porcine liver carboxylesterase. Put plainly: in vitro carboxylesterase enzyme assay with p-nitrophenyl propionate. The following applies: co-incubation with 100 μM.

Turning to `O=[N+]([O-])c1ccc(OCC2CO2)cc1` (centres unmarked) [2-(4-nitro-phenoxymethyl)-oxirane, reference compound], the “ATP-induced IL-1β production” value in data set [1] is “did not inhibit”.
As for `CC(C)c1cc(Cl)cc(C(C)C)c1NC(=O)NS(=O)(=O)c1cc(C2CO2)ccc1F` (centres unmarked) [Compound 1, 1-(4-Chloro-2,6-diisopropyl-phenyl)-3-[2-fluoro-5-oxiranylbenzene-sulfonyl]-urea], the melting point was 126 to 130 °C. Moreover, the “radiolabeled polypeptides in soluble fraction of monocyte extracts” value in data set [2] is recorded as “several radiolabeled polypeptides were detected”. For the same compound, in data set [1] (FIG. 3B), the “IL-1 production of [14C]DASU-treated cells exposed to ATP” value is given as “dose-dependent inhibition”. In addition, the “ATP-induced IL-1β production” value in data set [1] was “dose-dependent inhibition”.
Consider `O=C(Nc1c2c(cc3c1CCC3)CCC2)NS(=O)(=O)c1cc(C2CO2)ccc1F` (centres unmarked) [Compound 2, 1-(1,2,3,5,6,7-Hexahydro-s-indacen-4-yl)-3-[2-fluoro-5-oxiranyl-benzenesulfonyl]-urea], for which the “radiolabeled polypeptides in soluble fraction of monocyte extracts” value in data set [2] is listed as “several radiolabeled polypeptides were detected”. Also, the “labeling of rDBP-32” value in data set [3] was “labeled by [^14C]Compound 2 in a concentration dependent manner”. Further, the “labeling of bacterial glutathione S-transferase” value in data set [4] is “not labeled”. For the same compound, the “reduction of observed carboxylesterase enzymatic activity” value in data set [5] is on record as 67%. Further, in data set [1], the “ATP-induced IL-1β production” value is “dose-dependent inhibition”. The “IL-1β production after pretreatment and ATP in absence of compound” value in data set [1] (pretreated 60 min, then ATP without compound, FIG. 2B) was “remained suppressed”.
